Experiments:
Psoas muscle [1] = test: Increase in psoas muscle force in rabbit skinned single fiber preparation at a calcium concentration that produces a force increase that is 25% of the maximum response in a control preparation by skinned fast skeletal muscle fiber assay; type: functional; details: Oryctolagus cuniculus
Psoas muscle [2] = test: Activation of fast twitch skeletal muscle in rabbit psoas muscle myofibrils by measuring increase in myofibril ATPase activity at 25% calcium concentration; type: functional; details: Oryctolagus cuniculus
[3] = Metabolic stability in human liver microsomes assessed as intrinsic clearance measured after 90 mins by HPLC/MS/MS analysis; type: ADME, Microsome; details: read-out: CLH
[4] = molecular target: T1, Nuclear receptor subfamily 1 group I member 2 (Homo sapiens, UniProt O75469); test: Transactivation of human PXR transfected in DPX2 cells assessed as CYP3A4 induction at 10 uM by luciferase reporter gene assay; type: ADME, cell-based; details: dpx2, 10 µM
T1 sequence (O75469 whole entry): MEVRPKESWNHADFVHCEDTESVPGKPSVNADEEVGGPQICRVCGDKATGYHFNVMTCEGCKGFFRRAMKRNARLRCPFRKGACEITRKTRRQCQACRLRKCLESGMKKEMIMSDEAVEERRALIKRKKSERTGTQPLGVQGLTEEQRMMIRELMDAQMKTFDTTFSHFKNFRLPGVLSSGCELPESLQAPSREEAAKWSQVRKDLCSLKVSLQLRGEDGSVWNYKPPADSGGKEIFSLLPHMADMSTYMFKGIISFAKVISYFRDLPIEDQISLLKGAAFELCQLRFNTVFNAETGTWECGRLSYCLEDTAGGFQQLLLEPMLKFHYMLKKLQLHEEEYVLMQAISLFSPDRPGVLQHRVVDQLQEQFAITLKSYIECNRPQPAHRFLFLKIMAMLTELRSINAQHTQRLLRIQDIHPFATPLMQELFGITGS

hERG (KCNH2) = hERG (KCNH2) (Homo sapiens, UniProt Q12809); test: Displacement of [3H]astemizole from human ERG expressed in HEK293 cells at 100 uM relative to control; type: cell-based; details: HEK293 cells that express hERG, probe [3H]astemizole
[5] = Intrinsic clearance in human hepatocytes; type: ADME, cell-based, Hepatocyte; details: read-out: CLH
[6] = test system: Extensor digitorum longus; test: Increase in muscle tension in rat extensor digitorum longus muscle rat model assessed as free plasma concentration to increase muscle tension at subtetanic nerve stimulation rate of 30 Hz; type: functional, tissue-based
[7] = Plasma protein binding in male rat assessed as unbound fraction; type: ADME, cell-free
[8] = Drug distribution in Sprague-Dawley rat brain to blood ratio at 100 mg/kg, po by HPLC analysis; type: ADME, organism-based
[9] = Drug distribution in Sprague-Dawley rat Soleus muscle to blood ratio at 100 mg/kg, po by HPLC analysis; type: ADME, organism-based
[10] = Drug distribution in Sprague-Dawley rat extensor digitorum longus to blood ratio at 100 mg/kg, po by HPLC analysis; type: ADME, organism-based
[11] = Drug distribution in Sprague-Dawley rat plasma to blood ratio at 100 mg/kg, po by HPLC analysis; type: ADME, organism-based; details: in vivo
[12] = Efflux ratio of apparent permeability in human Caco-2 cells; type: ADME, cell-based
[13] = Clearance in male Sprague-Dawley rat at 3 mg/kg, po administered as single dose measured up to 24 hrs by HPLC analysis; type: ADME, organism-based; details: in vivo
[14] = Volume of distribution at steady state in male Sprague-Dawley rat at 3 mg/kg, po administered as single dose measured up to 24 hrs by HPLC analysis; type: ADME, organism-based; details: in vivo
[15] = Metabolic stability in male rat liver microsomes assessed as intrinsic clearance measured after 90 mins by HPLC/MS/MS analysis; type: ADME, Microsome; details: read-out: CLH
[16] = Intrinsic clearance in male rat hepatocytes; type: ADME, cell-based, Hepatocyte; details: read-out: CLH
[17] = Clearance in mouse at 3 mg/kg, po administered as single dose measured up to 24 hrs by HPLC analysis; type: ADME, organism-based; details: in vivo
[18] = Volume of distribution at steady state in mouse at 3 mg/kg, po administered as single dose measured up to 24 hrs by HPLC analysis; type: ADME, organism-based; details: in vivo
[19] = Oral bioavailability in mouse at 3 mg/kg administered as single dose measured up to 24 hrs by HPLC analysis; type: ADME, organism-based; details: in vivo
[20] = Clearance in female Sprague-Dawley rat at 3 mg/kg, po administered as single dose measured up to 24 hrs by HPLC analysis; type: ADME, organism-based; details: in vivo
[21] = Volume of distribution at steady state in female Sprague-Dawley rat at 3 mg/kg, po administered as single dose measured up to 24 hrs by HPLC analysis; type: ADME, organism-based; details: in vivo
[22] = Oral bioavailability in female Sprague-Dawley rat at 3 mg/kg administered as single dose measured up to 24 hrs by HPLC analysis; type: ADME, organism-based; details: in vivo
[23] = Metabolic stability in female rat liver microsomes assessed as intrinsic clearance measured after 90 mins by HPLC/MS/MS analysis; type: ADME, Microsome; details: read-out: CLH
[24] = Intrinsic clearance in female rat hepatocytes; type: ADME, cell-based, Hepatocyte; details: read-out: CLH
[25] = Plasma protein binding in female rat assessed as unbound fraction; type: ADME, cell-free
[26] = Clearance in Beagle dog at 3 mg/kg, po administered as single dose measured up to 24 hrs by HPLC analysis; type: ADME, organism-based, Canis lupus familiaris; details: in vivo
[27] = Volume of distribution at steady state in Beagle dog at 3 mg/kg, po administered as single dose measured up to 24 hrs by HPLC analysis; type: ADME, organism-based, Canis lupus familiaris; details: in vivo
[28] = Oral bioavailability in Beagle dog at 3 mg/kg administered as single dose measured up to 24 hrs by HPLC analysis; type: ADME, organism-based, Canis lupus familiaris; details: in vivo
[29] = Plasma protein binding in dog assessed as unbound fraction; type: ADME, cell-free, Canis lupus familiaris
[30] = Metabolic stability in dog liver microsomes assessed as intrinsic clearance measured after 90 mins by HPLC/MS/MS analysis; type: ADME, Canis lupus familiaris, Microsome; details: read-out: CLH
[31] = Intrinsic clearance in dog hepatocytes; type: ADME, cell-based, Canis lupus familiaris, Hepatocyte; details: read-out: CLH
[32] = Clearance in cynomolgus monkey at 3 mg/kg, po administered as single dose measured up to 24 hrs by HPLC analysis; type: ADME, organism-based, Macaca fascicularis; details: in vivo
[33] = Volume of distribution at steady state in cynomolgus monkey at 3 mg/kg, po administered as single dose measured up to 24 hrs by HPLC analysis; type: ADME, organism-based, Macaca fascicularis; details: in vivo
[34] = Oral bioavailability in cynomolgus monkey at 3 mg/kg administered as single dose measured up to 24 hrs by HPLC analysis; type: ADME, organism-based, Macaca fascicularis; details: in vivo
[35] = Plasma protein binding in monkey assessed as unbound fraction; type: ADME, cell-free, Macaca mulatta; details: rhesus monkey
[36] = Metabolic stability in monkey liver microsomes assessed as intrinsic clearance measured after 90 mins by HPLC/MS/MS analysis; type: ADME, Macaca mulatta, Microsome; details: rhesus monkey, read-out: CLH
[37] = Intrinsic clearance in monkey hepatocytes; type: ADME, cell-based, Macaca mulatta, Hepatocyte; details: rhesus monkey, read-out: CLH
[38] = Plasma protein binding in human assessed as unbound fraction; type: ADME, cell-free

hERG (KCNH2), sequence (Q12809 whole entry): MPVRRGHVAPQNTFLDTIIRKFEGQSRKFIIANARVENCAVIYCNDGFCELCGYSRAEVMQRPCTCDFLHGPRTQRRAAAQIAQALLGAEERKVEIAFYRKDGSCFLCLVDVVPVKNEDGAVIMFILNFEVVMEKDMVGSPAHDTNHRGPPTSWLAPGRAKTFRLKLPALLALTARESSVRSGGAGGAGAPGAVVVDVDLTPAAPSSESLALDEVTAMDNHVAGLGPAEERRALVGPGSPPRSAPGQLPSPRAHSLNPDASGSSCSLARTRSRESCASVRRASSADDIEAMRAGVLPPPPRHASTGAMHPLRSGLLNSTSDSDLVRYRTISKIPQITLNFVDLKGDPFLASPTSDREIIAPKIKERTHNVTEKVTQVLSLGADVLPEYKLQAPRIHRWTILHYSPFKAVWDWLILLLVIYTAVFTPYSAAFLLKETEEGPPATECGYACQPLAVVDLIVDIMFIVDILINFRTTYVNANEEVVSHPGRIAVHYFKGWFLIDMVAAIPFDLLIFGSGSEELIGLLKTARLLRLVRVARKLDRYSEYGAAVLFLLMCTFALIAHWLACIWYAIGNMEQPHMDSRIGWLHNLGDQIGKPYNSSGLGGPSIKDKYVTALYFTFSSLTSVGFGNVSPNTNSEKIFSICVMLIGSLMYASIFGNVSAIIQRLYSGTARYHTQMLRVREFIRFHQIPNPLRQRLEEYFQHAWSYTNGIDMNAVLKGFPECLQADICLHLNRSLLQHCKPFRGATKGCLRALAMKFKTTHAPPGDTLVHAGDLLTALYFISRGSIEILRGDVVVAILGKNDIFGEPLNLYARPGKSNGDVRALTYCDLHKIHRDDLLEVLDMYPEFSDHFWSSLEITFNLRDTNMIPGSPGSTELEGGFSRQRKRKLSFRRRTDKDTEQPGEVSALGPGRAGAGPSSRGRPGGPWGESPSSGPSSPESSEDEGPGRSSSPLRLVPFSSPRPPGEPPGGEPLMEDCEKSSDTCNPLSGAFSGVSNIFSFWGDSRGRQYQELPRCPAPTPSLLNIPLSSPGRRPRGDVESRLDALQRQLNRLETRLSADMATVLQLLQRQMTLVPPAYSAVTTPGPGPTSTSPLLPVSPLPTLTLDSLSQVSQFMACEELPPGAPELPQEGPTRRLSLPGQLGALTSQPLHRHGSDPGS

CLint scaled [3]: < 14 mL/min/kg
Activity [4]: 18%
CLint scaled [5]: < 14 mL/min/kg
EC50 [6]: 38000 nM
fraction unbound [7]: 0.5
Kp [8]: 0.063
Kp [9]: 0.77
Kp [10]: 0.85
Ratio [11]: 1
efflux ratio [12]: 3.1
CL/F [13]: 74 mL/min/kg
Vdss [14]: 2.6 L/kg
CLint scaled [15]: 15 mL/min/kg
CLint scaled [16]: 56 mL/min/kg
CL/F [17]: 86 mL/min/kg
Vdss [18]: 3.3 L/kg
bioavailability [19]: 47%
CL/F [20]: 24 mL/min/kg
Vdss [21]: 1.3 L/kg
bioavailability [22]: 45%
CLint scaled [23]: 15 mL/min/kg
CLint scaled [24]: 217 mL/min/kg
fraction unbound [25]: 0.5
CL/F [26]: 22 mL/min/kg
Vdss [27]: 1.9 L/kg
bioavailability [28]: 25%
fraction unbound [29]: 0.5
CLint scaled [30]: 11 mL/min/kg
CLint scaled [31]: 37 mL/min/kg
CL/F [32]: 13 mL/min/kg
Vdss [33]: 1.3 L/kg
bioavailability [34]: 26%
fraction unbound [35]: 0.49
CLint scaled [36]: 18 mL/min/kg
CLint scaled [37]: 23 mL/min/kg
fraction unbound [38]: 0.49
Compound: NC(=O)c1ccn(-c2cnc(NC[C@]3(c4ncccc4F)C[C@H](F)C3)nc2)c1 [RELDESEMTIV]
EC30 (Psoas muscle [1]): 800 nM
EC40 (Psoas muscle [2]): 600 nM
inhibition at 100 µM (hERG (KCNH2)): 33%
